Measured values as given in ChEMBL document CHEMBL1201862, “PubChem BioAssay data set” (2004).
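Compound exposure: 48 hours, 5 concentrations, 96-well plates. At the GI50, growth is halved.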 Activity calls are given as the source filed them. No stated cut-off is given here; in the data, active = GI50 up to about 1.1 µM and inactive = higher.

Key:
Assay in all cases: DTP human tumour cell line panel, 48 h
SK-MEL-2 = test system: SK-MEL-2
SK-OV-3 = test system: SK-OV-3
786-0 = test system: 786-0
SF-295 = test system: SF-295
HCC 2998 = test system: HCC 2998
SF-268 = test system: SF-268
HT-29 = test system: HT-29
SK-MEL-5 = test system: SK-MEL-5
MDA-MB-435 = test system: MDA-MB-435
BT-549 = test system: BT-549
RXF 393 = test system: RXF 393
OVCAR-8 = test system: OVCAR-8
DU-145 = test system: DU-145
MOLT-4 = test system: MOLT-4
KM12 = test system: KM12
HCT-15 = test system: HCT-15
HCT-116 = test system: HCT-116
NCI/ADR-RES = test system: NCI/ADR-RES
DMS-273 = test system: DMS-273
LOX IMVI = test system: LOX IMVI

Compound	GI50 (SK-MEL-2)	GI50 (SK-OV-3)	GI50 (786-0)	GI50 (SF-295)	GI50 (HCC 2998)	GI50 (SF-268)	GI50 (HT-29)	GI50 (SK-MEL-5)	GI50 (MDA-MB-435)	GI50 (BT-549)	GI50 (RXF 393)	GI50 (OVCAR-8)	GI50 (DU-145)	GI50 (MOLT-4)	GI50 (KM12)	GI50 (HCT-15) [µM]	GI50 (HCT-116)	GI50 (NCI/ADR-RES)	GI50 (DMS-273)	GI50 (LOX IMVI)
COc1ccc2c(c1)c(=O)c1c(NCCCN(C)C)ccc3ncn2c31	14.2 µM (inactive)	8.38 µM (inactive)	1.68 µM (inactive)	1.47 µM (inactive)	3.05 µM (inactive)	1.31 µM (inactive)	1.13 µM (inactive)	7.67 µM (inactive)	6.05 µM (inactive)	17.6 µM (inactive)	0.366 µM (active)	0.495 µM (active)	4.66 µM (inactive)	0.215 µM (active)	1.38 µM (inactive)	1.44	0.188 µM (active)	0.832 µM (active)	1.07 µM (active)	1.54 µM (inactive)
COc1ccc(-c2cc3ccccc3[nH]c2=O)cc1OC	> 100 µM (inactive)	> 100 µM (inactive)	> 100 µM (inactive)	> 100 µM (inactive)	> 100 µM (inactive)	> 100 µM (inactive)	> 100 µM (inactive)				47.5 µM (inactive)	> 100 µM (inactive)		> 100 µM (inactive)	> 100 µM (inactive)	> 100	> 100 µM (inactive)		> 100 µM (inactive)	> 100 µM (inactive)
N#CC(N)(C(=O)C(=O)NCCCNC(=O)C(=O)C(N)(C#N)c1ccc(Cl)cc1)c1ccc(Cl)cc1 (stereo not drawn)	> 100 µM (inactive)	> 100 µM (inactive)	> 100 µM (inactive)	> 100 µM (inactive)	> 100 µM (inactive)	> 100 µM (inactive)	> 100 µM (inactive)	> 100 µM (inactive)			> 100 µM (inactive)	> 100 µM (inactive)		> 100 µM (inactive)	> 100 µM (inactive)	> 100	> 100 µM (inactive)		> 100 µM (inactive)	> 100 µM (inactive)
CNC(=O)OC1/C(C)=C\C(C)C(O)C(OC)CC(C)CC2=C(OC)C(=O)C=C(C2=O)N(C)C(=O)/C(C)=C/C=C\C1OC (stereo not drawn)	8.85 µM (inactive)	10.2 µM (inactive)	4.31 µM (inactive)	24.4 µM (inactive)	4.39 µM (inactive)	9.73 µM (inactive)	1.19 µM (inactive)	7.64 µM (inactive)		5 µM (inactive)	2.25 µM (inactive)	7.38 µM (inactive)	9.64 µM (inactive)	0.891 µM (active)	10.4 µM (inactive)	6.76	8.05 µM (inactive)	20 µM (inactive)	3.31 µM (inactive)	4.68 µM (inactive)
COC(=O)CCC1CCc2c(OC)ccc(O)c2C1=O (stereo not drawn)	> 100 µM (inactive)	> 100 µM (inactive)	> 100 µM (inactive)	> 100 µM (inactive)	> 100 µM (inactive)	> 100 µM (inactive)	> 100 µM (inactive)	> 100 µM (inactive)			> 100 µM (inactive)	> 100 µM (inactive)		> 100 µM (inactive)	> 100 µM (inactive)	> 100	> 100 µM (inactive)		> 100 µM (inactive)	> 100 µM (inactive)
Cc1cc(N(CCOS(C)(=O)=O)CCOS(C)(=O)=O)ccc1/C=N/c1ccc(-c2nc(Cc3ccccc3)sc2C)cc1	15.3 µM (inactive)	0.494 µM (active)	1.28 µM (inactive)	1.57 µM (inactive)	3.77 µM (inactive)	3.99 µM (inactive)	5.3 µM (inactive)	9.68 µM (inactive)	11 µM (inactive)	9.12 µM (inactive)	0.933 µM (active)	7.53 µM (inactive)	0.834 µM (active)	1.23 µM (inactive)	14.2 µM (inactive)	11.2	15.2 µM (inactive)	10.6 µM (inactive)	1.87 µM (inactive)	5.37 µM (inactive)
COc1cc2c(cc1OC)[C@@H](Nc1ccc(F)cc1)C1COC(=O)[C@@H]1C2c1cc(OC)c(O)c(OC)c1 (stereo partly drawn)	5.42 µM (inactive)	1.56 µM (inactive)	0.573 µM (active)	0.267 µM (active)	2.65 µM (inactive)	2.1 µM (inactive)	3.66 µM (inactive)	1.93 µM (inactive)			3.4 µM (inactive)	1.99 µM (inactive)		0.0147 µM (active)	2.77 µM (inactive)	1.67	3.56 µM (inactive)		0.0832 µM (active)	0.671 µM (active)
COc1cccc2c1C(=O)OC2c1cccc2ccccc12 (stereo not drawn)	> 100 µM (inactive)	> 73.6 µM (inactive)	50.8 µM (inactive)	33.6 µM (inactive)	> 100 µM (inactive)	72.8 µM (inactive)	> 100 µM (inactive)	> 100 µM (inactive)	> 100 µM (inactive)	> 100 µM (inactive)	31.5 µM (inactive)	56.4 µM (inactive)	> 100 µM (inactive)	> 100 µM (inactive)	> 100 µM (inactive)	> 100	> 96.6 µM (inactive)	53.3 µM (inactive)	> 100 µM (inactive)	> 100 µM (inactive)
CC1=C2C(=O)C3[C@@H](CCC4=CC(=O)CC[C@@]43C)C2CC[C@]12O[C@@H]1C[C@H](C)CN[C@H]1[C@H]2C (stereo partly drawn)	21.1 µM (inactive)	> 100 µM (inactive)	43.4 µM (inactive)	32.8 µM (inactive)	> 100 µM (inactive)	31.6 µM (inactive)	39.8 µM (inactive)	42.1 µM (inactive)			38.5 µM (inactive)	40.7 µM (inactive)		19.9 µM (inactive)	30.1 µM (inactive)	48.8	30.6 µM (inactive)		17.7 µM (inactive)	29.6 µM (inactive)
N#CC(C(=O)/C(=N/Nc1nc(S)nn1N)C(C#N)c1ccccc1)c1ccccc1 (stereo not drawn)	> 100 µM (inactive)	> 100 µM (inactive)	> 100 µM (inactive)	> 100 µM (inactive)	> 100 µM (inactive)	> 100 µM (inactive)	> 100 µM (inactive)	> 100 µM (inactive)	> 100 µM (inactive)	> 100 µM (inactive)	> 100 µM (inactive)	> 100 µM (inactive)	> 100 µM (inactive)		> 100 µM (inactive)	> 100	> 100 µM (inactive)	> 100 µM (inactive)	> 100 µM (inactive)	> 100 µM (inactive)
CCOC(=O)CN(Cc1ccccc1)Cc1c(C(=O)c2ccccc2)c2ccccc2n1C(=O)c1ccccc1	> 100 µM (inactive)	> 100 µM (inactive)	> 100 µM (inactive)	> 100 µM (inactive)	> 100 µM (inactive)	> 100 µM (inactive)	> 100 µM (inactive)	96.8 µM (inactive)			> 10 µM (inactive)	> 100 µM (inactive)		5.4 µM (inactive)	> 100 µM (inactive)	> 100	32.7 µM (inactive)		> 100 µM (inactive)	> 100 µM (inactive)
